Columns and labels:
[1] = target: T1, hA1 (Homo sapiens, UniProt P30542); experiment: hA1 receptor affinity (Ki); type: binding; conditions: list of examples 10-108
T1 sequence (P30542 1-326): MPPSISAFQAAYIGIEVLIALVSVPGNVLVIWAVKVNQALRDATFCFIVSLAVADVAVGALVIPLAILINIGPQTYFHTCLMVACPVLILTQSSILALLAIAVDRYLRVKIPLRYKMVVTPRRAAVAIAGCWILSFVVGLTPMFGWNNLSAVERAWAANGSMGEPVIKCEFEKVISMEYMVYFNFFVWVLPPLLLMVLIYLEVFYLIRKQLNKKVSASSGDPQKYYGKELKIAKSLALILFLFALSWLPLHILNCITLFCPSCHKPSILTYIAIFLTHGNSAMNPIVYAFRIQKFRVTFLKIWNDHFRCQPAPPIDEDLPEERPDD

[2] = target: T2, human adenosine A2A receptor (Homo sapiens, UniProt P29274); experiment: [3H]-SCH-58261 binding assay, human adenosine A2A receptor (CHO cell membranes, SPA); conditions: for Ki: [3H]-SCH-58261 displacement, Ki by Cheng-Prussoff, table of preferred compounds, read-out: hA2a Ki; for Select. A1/A2a: ratio hA1 Ki / hA2a Ki
T2 construct: expressed in transfected cells; host or cells: CHO cells, semliki forest virus expression system; washed membranes
T2 sequence (P29274 whole entry): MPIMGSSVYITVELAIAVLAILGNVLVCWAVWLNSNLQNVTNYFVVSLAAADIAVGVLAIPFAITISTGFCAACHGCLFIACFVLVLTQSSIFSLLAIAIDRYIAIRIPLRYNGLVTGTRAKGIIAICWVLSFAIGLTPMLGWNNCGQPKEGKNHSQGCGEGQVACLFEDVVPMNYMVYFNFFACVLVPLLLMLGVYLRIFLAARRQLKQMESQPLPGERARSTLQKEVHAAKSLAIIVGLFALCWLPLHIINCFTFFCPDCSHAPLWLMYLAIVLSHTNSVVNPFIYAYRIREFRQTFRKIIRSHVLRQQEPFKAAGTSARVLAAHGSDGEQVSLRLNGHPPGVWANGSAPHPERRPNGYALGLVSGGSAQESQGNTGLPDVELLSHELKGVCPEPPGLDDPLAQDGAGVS

Structure (SMILES): Cc1ccc(-c2nc3c(N)cc(C(=O)N4CCCC4C)cn3n2)o1 (stereo not drawn) [Example 85, [8-Amino-2-(5-methyl-furan-2-yl)-[1,2,4]triazolo[1,5-a]pyridin-6-yl]-(2-methyl-pyrrolidin-1-yl)-methanone]
- Ki [1]: 1360 nM
- Ki [2]: 75.2 nM
- Select. A1/A2a [2]: 18.1

Structure (SMILES): C[C@@H]1C[C@@H](C)CN(C(=O)c2cc(N)c3nc(-c4ccc(Br)o4)nn3c2)C1 (stereo in doubt) [Example 14, [8-Amino-2-(5-bromo-furan-2-yl)-[1,2,4]triazolo[1,5-a]pyridin-6-yl]-(3,5-dimethyl-piperidin-1-yl)-methanone]
- Ki [1]: 1190 nM
- Ki [2]: 37.2 nM
- Select. A1/A2a [2]: 32

Structure (SMILES): CN(C)C(=O)[C@@H]1CCCN1C(=O)c1cc(N)c2nc(-c3ccc(Br)o3)nn2c1 [Example 18, 1-[8-Amino-2-(5-bromo-furan-2-yl)-[1,2,4]triazolo[1,5-a]pyridine-6-carbonyl]-pyrrolidine-2-carboxylic acid (S)-dimethylamide]
- Ki [1]: 1110 nM
- Ki [2]: 67 nM
- Select. A1/A2a [2]: 16.5

Reference: patent US6689790B2, “Substituted triazolopyridine compounds” (Hoffmann-La Roche Inc., priority 2001, dated 2004)
